# Measurements: the supplement of paper PMC10307832
# Experiments:
# Test in all cases: relative viability (nuclei count vs DMSO), 5 days (fraction); higher = more cells survive
# COR-L23 = tested on: COR-L23
# How it was run: (§1)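 The day after seeding in 1536-well plates, lung cancer cell lines were treated by pin tool with a single drug, or with a fixed anchor-drug dose together with five library-drug doses (not always all listed) in √10 steps. After 5 days, a combined fix-and-stain solution (final 0.05% Triton X-100, 1% formaldehyde, 1 ug/ml Hoechst) was added. Nuclei counted on 4× images gave relative viability as treated counts over vehicle counts, reported as the median of duplicate plates.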
# SK-MES-1 = tested on: SK-MES-1
# How it was run: as §1
# HOP-62 = tested on: HOP-62
# How it was run: as §1
# NCI-H358 = tested on: NCI-H358
# How it was run: as §1
# NCI-H1993 = tested on: NCI-H1993
# How it was run: as §1
# NCI-H522 = tested on: NCI-H522
# How it was run: as §1
# NCI-H322M = tested on: NCI-H322M
# How it was run: as §1
# NCI-H2347 = tested on: NCI-H2347
# How it was run: as §1
# NCI-H1355 = tested on: NCI-H1355
# How it was run: as §1
# NCI-H2009 = tested on: NCI-H2009
# How it was run: as §1
# NCI-H2170 = tested on: NCI-H2170
# How it was run: as §1
# COR-L 105 = tested on: COR-L 105
# How it was run: as §1
# NCI-H838 = tested on: NCI-H838
# How it was run: as §1
# NCI-H1755 = tested on: NCI-H1755
# How it was run: as §1
# NCI-H1793 = tested on: NCI-H1793
# How it was run: as §1
# PC-14 = tested on: PC-14
# How it was run: as §1
# NCI-H2342 = tested on: NCI-H2342
# How it was run: as §1
# HARA = tested on: HARA
# How it was run: as §1
# EKVX = tested on: EKVX
# How it was run: as §1
# UMC-11 = tested on: UMC-11
# How it was run: as §1
# NCI-H647 = tested on: NCI-H647
# How it was run: as §1
# NCI-H1734 = tested on: NCI-H1734
# How it was run: as §1
# NCI-H1395 = tested on: NCI-H1395
# How it was run: as §1
# NCI-H2228 = tested on: NCI-H2228
# How it was run: as §1
smiles,measurement,setting,value
Clc1ccc(Nc2nnc(Cc3ccncc3)c3ccccc23)cc1 [Vatalanib] + Nc1nc2[nH]cc(CCc3ccc(C(=O)N[C@@H](CCC(=O)O)C(=O)O)cc3)c2c(=O)[nH]1 [Pemetrexed] (partner 0.2 µM),relative viability,COR-L23; first compound 0.04 µM,0.204
same,relative viability,COR-L23; first compound 0.1265 µM,0.194
same,relative viability,COR-L23; first compound 0.4 µM,0.212
same,relative viability,COR-L23; first compound 1.265 µM,0.201
same,relative viability,COR-L23; first compound 4 µM,0.208
same,relative viability,SK-MES-1; first compound 0.04 µM,0.905
same,relative viability,SK-MES-1; first compound 0.1265 µM,0.925
same,relative viability,SK-MES-1; first compound 0.4 µM,1.05
same,relative viability,SK-MES-1; first compound 1.265 µM,0.912
same,relative viability,SK-MES-1; first compound 4 µM,0.787
same,relative viability,HOP-62; first compound 0.04 µM,0.273
same,relative viability,HOP-62; first compound 0.1265 µM,0.336
same,relative viability,HOP-62; first compound 0.4 µM,0.277
same,relative viability,HOP-62; first compound 1.265 µM,0.275
same,relative viability,HOP-62; first compound 4 µM,0.349
same,relative viability,NCI-H358; first compound 0.04 µM,0.158
same,relative viability,NCI-H358; first compound 0.1265 µM,0.149
same,relative viability,NCI-H358; first compound 0.4 µM,0.16
same,relative viability,NCI-H358; first compound 1.265 µM,0.181
same,relative viability,NCI-H358; first compound 4 µM,0.157
same,relative viability,NCI-H1993; first compound 0.04 µM,0.581
same,relative viability,NCI-H1993; first compound 0.1265 µM,0.644
same,relative viability,NCI-H1993; first compound 0.4 µM,0.619
same,relative viability,NCI-H1993; first compound 1.265 µM,0.501
same,relative viability,NCI-H1993; first compound 4 µM,0.619
same,relative viability,NCI-H522; first compound 0.04 µM,0.923
same,relative viability,NCI-H522; first compound 0.1265 µM,0.861
same,relative viability,NCI-H522; first compound 0.4 µM,1.24
same,relative viability,NCI-H522; first compound 1.265 µM,0.86
same,relative viability,NCI-H522; first compound 4 µM,0.945
same,relative viability,NCI-H322M; first compound 0.04 µM,0.609
same,relative viability,NCI-H322M; first compound 0.1265 µM,0.656
same,relative viability,NCI-H322M; first compound 0.4 µM,0.678
same,relative viability,NCI-H322M; first compound 4 µM,0.572
same,relative viability,NCI-H2347; first compound 0.04 µM,0.444
same,relative viability,NCI-H2347; first compound 0.1265 µM,0.419
same,relative viability,NCI-H2347; first compound 0.4 µM,0.43
same,relative viability,NCI-H2347; first compound 1.265 µM,0.487
same,relative viability,NCI-H2347; first compound 4 µM,0.41
same,relative viability,NCI-H1355; first compound 0.04 µM,0.965
same,relative viability,NCI-H1355; first compound 0.1265 µM,1.01
same,relative viability,NCI-H1355; first compound 0.4 µM,1.08
same,relative viability,NCI-H1355; first compound 1.265 µM,0.979
same,relative viability,NCI-H1355; first compound 4 µM,0.936
same,relative viability,NCI-H2009; first compound 0.04 µM,0.975
same,relative viability,NCI-H2009; first compound 0.1265 µM,0.971
same,relative viability,NCI-H2009; first compound 0.4 µM,1.09
same,relative viability,NCI-H2009; first compound 1.265 µM,1.01
same,relative viability,NCI-H2009; first compound 4 µM,0.974
same,relative viability,NCI-H2170; first compound 0.04 µM,0.328
same,relative viability,NCI-H2170; first compound 0.1265 µM,0.289
same,relative viability,NCI-H2170; first compound 0.4 µM,0.273
same,relative viability,NCI-H2170; first compound 1.265 µM,0.292
same,relative viability,NCI-H2170; first compound 4 µM,0.261
same,relative viability,COR-L 105; first compound 0.04 µM,1.34
same,relative viability,COR-L 105; first compound 0.1265 µM,1.1
same,relative viability,COR-L 105; first compound 0.4 µM,1.2
same,relative viability,COR-L 105; first compound 1.265 µM,1.15
same,relative viability,COR-L 105; first compound 4 µM,1.04
same,relative viability,NCI-H838; first compound 0.04 µM,0.243
same,relative viability,NCI-H838; first compound 0.1265 µM,0.226
same,relative viability,NCI-H838; first compound 0.4 µM,0.261
same,relative viability,NCI-H838; first compound 1.265 µM,0.239
same,relative viability,NCI-H838; first compound 4 µM,0.239
same,relative viability,NCI-H1755; first compound 0.04 µM,0.4
same,relative viability,NCI-H1755; first compound 0.1265 µM,0.504
same,relative viability,NCI-H1755; first compound 0.4 µM,0.461
same,relative viability,NCI-H1755; first compound 1.265 µM,0.416
same,relative viability,NCI-H1755; first compound 4 µM,0.38
same,relative viability,NCI-H1793; first compound 0.04 µM,0.789
same,relative viability,NCI-H1793; first compound 0.1265 µM,0.817
same,relative viability,NCI-H1793; first compound 0.4 µM,1.06
same,relative viability,NCI-H1793; first compound 1.265 µM,0.747
same,relative viability,NCI-H1793; first compound 4 µM,0.714
same,relative viability,PC-14; first compound 0.04 µM,0.135
same,relative viability,PC-14; first compound 0.1265 µM,0.125
same,relative viability,PC-14; first compound 0.4 µM,0.125
same,relative viability,PC-14; first compound 1.265 µM,0.129
same,relative viability,PC-14; first compound 4 µM,0.129
same,relative viability,NCI-H2342; first compound 0.04 µM,0.726
same,relative viability,NCI-H2342; first compound 0.1265 µM,0.701
same,relative viability,NCI-H2342; first compound 0.4 µM,0.669
same,relative viability,NCI-H2342; first compound 1.265 µM,0.769
same,relative viability,NCI-H2342; first compound 4 µM,0.773
same,relative viability,HARA; first compound 0.04 µM,0.225
same,relative viability,HARA; first compound 0.1265 µM,0.265
same,relative viability,HARA; first compound 0.4 µM,0.252
same,relative viability,HARA; first compound 1.265 µM,0.232
same,relative viability,HARA; first compound 4 µM,0.256
same,relative viability,EKVX; first compound 0.04 µM,0.416
same,relative viability,EKVX; first compound 0.1265 µM,0.425
same,relative viability,EKVX; first compound 0.4 µM,0.393
same,relative viability,EKVX; first compound 1.265 µM,0.339
same,relative viability,EKVX; first compound 4 µM,0.365
same,relative viability,UMC-11; first compound 0.04 µM,0.849
same,relative viability,UMC-11; first compound 0.1265 µM,0.808
same,relative viability,UMC-11; first compound 0.4 µM,0.844
same,relative viability,UMC-11; first compound 1.265 µM,0.791
same,relative viability,UMC-11; first compound 4 µM,0.794
same,relative viability,NCI-H647; first compound 0.04 µM,0.192
same,relative viability,NCI-H647; first compound 0.1265 µM,0.163
same,relative viability,NCI-H647; first compound 0.4 µM,0.163
same,relative viability,NCI-H647; first compound 1.265 µM,0.187
same,relative viability,NCI-H647; first compound 4 µM,0.19
same,relative viability,NCI-H1734; first compound 0.04 µM,0.401
same,relative viability,NCI-H1734; first compound 0.1265 µM,0.42
same,relative viability,NCI-H1734; first compound 0.4 µM,0.414
same,relative viability,NCI-H1734; first compound 1.265 µM,0.427
same,relative viability,NCI-H1734; first compound 4 µM,0.379
same,relative viability,NCI-H1395; first compound 0.04 µM,0.855
same,relative viability,NCI-H1395; first compound 0.1265 µM,0.764
same,relative viability,NCI-H1395; first compound 0.4 µM,0.767
same,relative viability,NCI-H1395; first compound 4 µM,0.842
same,relative viability,NCI-H2228; first compound 0.04 µM,0.352
same,relative viability,NCI-H2228; first compound 0.1265 µM,0.304
same,relative viability,NCI-H2228; first compound 0.4 µM,0.314
same,relative viability,NCI-H2228; first compound 1.265 µM,0.376
same,relative viability,NCI-H2228; first compound 4 µM,0.374
